Data from PubChem BioAssay AID1996.
≈ marks a conversion by molar mass, not a printed value.

settings: buffer; pH 7.4; 200.0 µM

Q: With `CN1CCN(C(=O)c2cc3ccccc3[nH]2)CC1` as the compound, how does the solubility kinetic read?
A: The solubility kinetic was > 36.5 µg/mL.

Q: For `O=C(O)c1ccc(NCc2cccnc2)c([N+](=O)[O-])c1`, which solubility kinetic is on record?
A: Its solubility kinetic is > 41 µg/mL.

Q: Which solubility kinetic does the source give for `O=C(NC1CCSc2ccccc21)c1ccc(C(F)(F)F)cc1` (stereo not drawn) here?
A: Its solubility kinetic is < 0.7 µg/mL.

Q: Which solubility kinetic does the source give for `O=C(Nc1ncccc1O)c1ccc2c(c1)OCCO2` here?
A: The solubility kinetic was > 40.8 µg/mL.

Q: With `COC(=O)Cn1cc(C(=O)c2ccccc2F)c2ccccc21` as the compound, how does the solubility kinetic read?
A: The solubility kinetic was 32.4 µg/mL (≈ 104 µM).

Q: For `CC(C)C(=O)NNC(=O)c1csc(-c2cccs2)n1`, which solubility kinetic is on record?
A: The solubility kinetic was > 44.3 µg/mL.

Q: With `Cc1ccc(/C=C2\CCn3c2nc2cc(C(=O)O)ccc2c3=O)c(C)c1` as the compound, how does the solubility kinetic read?
A: Its solubility kinetic is 45.7 µg/mL (≈ 132 µM).

Q: Which solubility kinetic does the source give for `C[N+]1(C)[C@@H]2CC[C@H]1CC(OC(=O)C(CO)c1ccccc1)C2.O=[N+]([O-])[O-]` (stereo partly drawn) here?
A: The solubility kinetic was > 55 µg/mL.

Q: Which solubility kinetic does the source give for `CCC1Oc2ccccc2N(CC(=O)NC2CC2)C1=O` (stereo not drawn) here?
A: Its solubility kinetic is > 41.1 µg/mL.

Q: Which solubility kinetic does the source give for `Cc1c(NS(=O)(=O)c2cccc(C(=O)N3CCC(C(N)=O)CC3)c2)c(=O)n(-c2ccccc2)n1C` here?
A: Its solubility kinetic is > 74.6 µg/mL.

Q: For `CC(=O)NC(CC(=O)N(C)Cc1cccc(Cl)c1Cl)c1ccccc1` (stereo not drawn), which solubility kinetic is on record?
A: The solubility kinetic was > 56.9 µg/mL.

Q: Which solubility kinetic does the source give for `CCCN1CCC(N(CCc2ccccc2)Cc2ccccc2)CC1` here?
A: Its solubility kinetic is 32.5 µg/mL (≈ 96.6 µM).

Q: With `CCc1nc2sc3c(=O)[nH]cnc3c2c2c1CSC(C)(C)C2` as the compound, how does the solubility kinetic read?
A: The solubility kinetic was 16.7 µg/mL (≈ 50.4 µM).

Q: With `Cn1c(SCC(=O)NC2CCS(=O)(=O)C2)nc2ccccc21` (stereo not drawn) as the compound, how does the solubility kinetic read?
A: Its solubility kinetic is > 50.9 µg/mL.

Q: Which solubility kinetic does the source give for `Cc1ccc(S(=O)(=O)N2CCCCC2)cc1NC(=O)c1cc(F)c(F)c(F)c1F` here?
A: Its solubility kinetic is 4.7 µg/mL (≈ 10.9 µM).

Q: With `Cc1ccc(C(=O)NCCCNc2ccccc2[N+](=O)[O-])cc1` as the compound, how does the solubility kinetic read?
A: The solubility kinetic was 3.4 µg/mL (≈ 10.9 µM).

Q: With `Cc1ccc2nc(C)cc(C(=O)NC3CCCCCC3)c2c1` as the compound, how does the solubility kinetic read?
A: Its solubility kinetic is 3.6 µg/mL (≈ 12.1 µM).

Q: For `CS(=O)(=O)N1CCC(C(=O)Nc2cccc([N+](=O)[O-])c2)CC1`, which solubility kinetic is on record?
A: The solubility kinetic was 44.3 µg/mL (≈ 135 µM).

Q: For `O=C(COc1ncnc2ccccc12)NC1CCCC1`, which solubility kinetic is on record?
A: Its solubility kinetic is > 40.7 µg/mL.

Q: For `CN(CC(=O)Nc1ccccc1)CC(=O)Nc1ccccc1Cl`, which solubility kinetic is on record?
A: The solubility kinetic was > 49.8 µg/mL.

Q: With `O=C(Nc1c(O)c2ccccc2[nH]c1=O)c1ccco1` as the compound, how does the solubility kinetic read?
A: Its solubility kinetic is > 40.5 µg/mL.

Q: Which solubility kinetic does the source give for `COc1ccc(NC(=S)Nc2cccnc2)c(OC)c1` here?
A: The solubility kinetic was 42.5 µg/mL (≈ 147 µM).

Q: For `Cc1ccc(S(=O)(=O)NC2CCSC2=O)cc1C` (stereo not drawn), which solubility kinetic is on record?
A: The solubility kinetic was 3.1 µg/mL (≈ 10.9 µM).

Q: With `CCC1CCCCN1C(=O)/C=C/c1ccc2c(c1)OCO2` (stereo not drawn) as the compound, how does the solubility kinetic read?
A: The solubility kinetic was > 43.1 µg/mL.

Q: For `COC(=O)C1=C(C)N(C)C(=O)NC1c1c(O)ccc2ccccc12` (stereo not drawn), which solubility kinetic is on record?
A: Its solubility kinetic is > 49 µg/mL.

Q: Which solubility kinetic does the source give for `CNC(=O)C(=O)NCCCN1CCOCC1` here?
A: The solubility kinetic was > 34.4 µg/mL.

Q: For `CCCC(=O)Oc1ccc(-c2nccc(C(OC)OC)n2)cc1`, which solubility kinetic is on record?
A: Its solubility kinetic is 46.1 µg/mL (≈ 146 µM).

Q: With `COC(=O)CNC(=O)C1CC(=O)N(CCc2ccc(F)cc2)C1` (stereo not drawn) as the compound, how does the solubility kinetic read?
A: The solubility kinetic was > 48.4 µg/mL.

Q: For `O=C(NC(=O)N1CCCCC1)c1ccccc1`, which solubility kinetic is on record?
A: Its solubility kinetic is 31.7 µg/mL (≈ 136 µM).

Q: Which solubility kinetic does the source give for `Cc1cccc(OCC(=O)Nc2ccc(NC(=O)c3ccco3)c(C)c2)c1` here?
A: Its solubility kinetic is 4.4 µg/mL (≈ 12.1 µM).

Q: With `O=[N+]([O-])c1cc([N+](=O)[O-])c2cc(-c3cccnc3)[nH]c2c1` as the compound, how does the solubility kinetic read?
A: Its solubility kinetic is < 0.2 µg/mL.

Q: Which solubility kinetic does the source give for `Cc1cnc(C(=O)OCC(=O)N(Cc2ccccc2)C(C)(C)C)cn1` here?
A: The solubility kinetic was > 51.2 µg/mL.

Q: For `COc1ccc(NC(=O)CSc2nc3nc(C)cc(C)c3c(=O)[nH]2)cc1OC`, which solubility kinetic is on record?
A: The solubility kinetic was 6.5 µg/mL (≈ 16.2 µM).

Q: Which solubility kinetic does the source give for `c1ccc(-c2cc(NCCN3CCCCC3)c3ccccc3n2)cc1` here?
A: Its solubility kinetic is > 49.7 µg/mL.

Q: With `CCN(CC)S(=O)(=O)c1ccc(C(=O)Nc2cc(S(=O)(=O)N3CCOCC3)ccc2O)cc1` as the compound, how does the solubility kinetic read?
A: The solubility kinetic was 12.2 µg/mL (≈ 24.5 µM).

Q: Which solubility kinetic does the source give for `CCc1cc(=O)oc2cc(OCC(=O)N3CC[C@@]4(O)CCCC[C@H]4C3)ccc12` here?
A: The solubility kinetic was > 57.8 µg/mL.

Q: Which solubility kinetic does the source give for `O=C(Nc1ccc(F)cc1)Nc1cccnc1` here?
A: Its solubility kinetic is > 34.7 µg/mL.

Q: With `CCN(CC)S(=O)(=O)c1cc(NC(=O)CSCc2c(C)noc2C)ccc1C` as the compound, how does the solubility kinetic read?
A: The solubility kinetic was > 63.8 µg/mL.

Q: With `Cc1ccc(CSc2ncnc3onc(C)c23)cc1` as the compound, how does the solubility kinetic read?
A: Its solubility kinetic is < 0.2 µg/mL.

Q: Which solubility kinetic does the source give for `N#Cc1ccc(COC(=O)c2ccc3c(c2)OCO3)cc1` here?
A: Its solubility kinetic is 2.3 µg/mL (≈ 8.18 µM).

Q: Which solubility kinetic does the source give for `Cc1oc(S(=O)(=O)N(C)C)cc1C(=O)Nc1ccc(F)cc1` here?
A: The solubility kinetic was 2.3 µg/mL (≈ 7.05 µM).

Q: For `Cc1nc([N+](=O)[O-])cn1C(C)C`, which solubility kinetic is on record?
A: Its solubility kinetic is > 25.4 µg/mL.

Q: With `CN(C)/C(=N\S(=O)(=O)c1ccc(F)cc1)c1ccccc1` as the compound, how does the solubility kinetic read?
A: Its solubility kinetic is > 46 µg/mL.

Q: With `COc1ccc(NC(=O)C2CCCN(S(C)(=O)=O)C2)cc1` (stereo not drawn) as the compound, how does the solubility kinetic read?
A: The solubility kinetic was 34.9 µg/mL (≈ 112 µM).

Q: With `CCCCc1ccccc1NC(=S)NC1CCCC1` as the compound, how does the solubility kinetic read?
A: The solubility kinetic was 30.5 µg/mL (≈ 110 µM).

Q: Which solubility kinetic does the source give for `CCCc1cc(=O)[nH]c(SCC(=O)N2CCc3ccccc32)n1` here?
A: Its solubility kinetic is 7.6 µg/mL (≈ 23.1 µM).

Q: Which solubility kinetic does the source give for `O=S(=O)(Cc1cc(-c2ccccc2Cl)no1)c1ccccc1` here?
A: Its solubility kinetic is 1.8 µg/mL (≈ 5.39 µM).

Q: For `CCCC(=O)NCc1ccccc1Cl`, which solubility kinetic is on record?
A: The solubility kinetic was 30.2 µg/mL (≈ 143 µM).

Q: With `c1ccc(-c2ccc(-c3ccncn3)cc2)cc1` as the compound, how does the solubility kinetic read?
A: The solubility kinetic was < 0.2 µg/mL.

Q: Which solubility kinetic does the source give for `Cc1cc(NC(=O)COC(=O)c2ccccc2[N+](=O)[O-])no1` here?
A: Its solubility kinetic is 21.3 µg/mL (≈ 69.8 µM).

Q: For `O=C(c1ccccn1)N1CCN(c2cccc(C(F)(F)F)c2)CC1`, which solubility kinetic is on record?
A: The solubility kinetic was > 50.3 µg/mL.

Q: With `CC1(/[N+]([O-])=C\c2ccccc2F)CCCCC1=O` (stereo not drawn) as the compound, how does the solubility kinetic read?
A: Its solubility kinetic is > 37.4 µg/mL.

Q: With `CC(=O)N(C1=NCCCS1)c1ccc(Cl)cc1` as the compound, how does the solubility kinetic read?
A: The solubility kinetic was 32.8 µg/mL (≈ 122 µM).

Q: Which solubility kinetic does the source give for `COc1ccc(NC(=S)NC(=O)/C=C/c2ccco2)cc1` here?
A: The solubility kinetic was 1.2 µg/mL (≈ 3.97 µM).

Q: Which solubility kinetic does the source give for `COc1ccc(Cl)cc1NC(=S)NC1CCCC1` here?
A: Its solubility kinetic is 3 µg/mL (≈ 10.5 µM).

Q: For `CC(=O)c1ccn(S(=O)(=O)c2ccc(Cl)cc2)c1`, which solubility kinetic is on record?
A: The solubility kinetic was 33.9 µg/mL (≈ 119 µM).

Q: For `COc1cc(S(=O)(=O)N2CCN(Cc3ccc4c(c3)OCO4)CC2)ccc1NC(C)=O.Cl`, which solubility kinetic is on record?
A: Its solubility kinetic is 10.5 µg/mL.

Q: Which solubility kinetic does the source give for `O=C(Nc1nc2ccc(Br)cc2s1)c1ccco1` here?
A: The solubility kinetic was < 0.3 µg/mL.
